Test results taken from patent publication US20090234150A1, “Use of ppar-alpha agonists to treat skeletal muscle wasting disorders” (priority 2006, published 2009).

Tested on: ischemic muscle necrosis
Conditions: wild type mice, 0.5 g/kg/day by gavage for 10 days prior to femoral artery ligation
Source text: To assess the muscle protective effect of the PPAR-alpha agonist fenofibrate, wild type mice received fenofibrate (0.5 g/kg/day; Cayman Chemical, Ann Arbor, Mich., USA) by gavage, or vehicle alone for 10 days prior to femoral artery ligation. Two days after femoral artery ligation muscle necrosis was subsequently analyzed on histological sections of the crural muscles.
Limb ischemia was induced by high unilateral right or bilateral ligation of the femoral artery and vein, and of the cutaneous vessels branching from the caudal femoral artery, sparing the femoral nerve. Crural muscles were dissected and processed for histological analysis 2 d or 7 d after ligation.
The crural muscles were dissected, fixed in 4% PFA, dehydrated, embedded in paraffin, and sectioned at 10 μm thickness. Microscopic analysis was performed with a Zeiss Axioplan 2 imaging microscope, equipped with an Axiocam HrC camera and KS300 morphometry software (Zeiss). Capillary density, fiber size, and the cross-sectional area of viable and necrotic zones were quantified on eight entire sections (each 320 μm apart) of the crural muscles.

CC(C)OC(=O)C(C)(C)Oc1ccc(C(=O)c2ccc(Cl)cc2)cc1 [fenofibrate]
prevention of ischemic muscle necrosis (analysed two days after ligation, versus vehicle): 60% | % necrotic area/total cross-sectional area (crural muscles two days after ligation, n=4, P=0.002 (vehicle 86.3±8.2%)): 34.3±7%
